Data as given in paper PMC10458307, “New Scaffolds of Proteasome Inhibitors: Boosting Anticancer Potential by Exploiting the Synergy of In Silico and In Vitro Methodologies” (Pharmaceuticals, 2023).
Several values for one entry are separate records, joined by “and”; a condition that tells them apart may be missing. Identical values can stand only once.

Columns and labels:
[1] = target: T1, isolated human 20S proteasome, T-L activity (Homo sapiens, UniProt P49720+Q99436); experiment: Proteasome inhibition assay in isolated human 20S proteasomes (Proteasome-Glo), T-L activity; type: biochemical; settings: for inhibition at 10 µM: read-out: percentage of proteasome inhibition, T-L, isolated 20S proteasome; for percentage of proteasome inhibition, T-L, isolated human 20S proteasome: at 100 µM, Table 1 legend: bortezomib positive control 10 µM; for IC50: mean ± SD
T1 construct: human purified erythrocyte-derived 20S proteasome; purchased Enzo Life Sciences, Inc; host or cells: human erythrocytes (natural source)
Description: In this assay, the peptide substrates are bound to aminoluciferin (Suc-LLVY-AML for CT-L activity, Z-nLPnLD-AML for C-L, and Z-LRR-AML for T-L), leading the cleavage of these substrates by the proteasome to the release of free aminoluciferin, which is the substrate of the buffer-contained luciferase.
To evaluate human purified erythrocyte-derived 20S proteasome inhibitory activity of the chosen compounds, the Proteasome-Glo™ 3-substrate system (Promega Corporation, Madison, WI, USA) was employed. The Proteasome-Glo™ reagents of the three proteolytic activities were prepared according to the manufacturer’s instructions, aliquoted, and stored at either −20 °C or 4 °C, avoiding freezing–thaw cycles. […] The purified 20S proteasome (Enzo Life Sciences, Inc., Farmingdale, NY, USA) was diluted in HEPES buffer 10 mM, pH 7.4, to a concentration experimentally adjusted to the signal/noise ratio obtained with each particular lot of Proteasome-Glo™ reagent, in order to have a good compromise between sensitivity and linear response. […] All assays were performed in white-walled multiwell plates (Thermo Scientific™ Sterilin™ White Microtiter™ plates, Thermo Fisher Scientific, Paisley, UK) in duplicates. The proteasome solution (25 μL) was added to each well first, then the diluted solutions of the assayed compounds (25 μL), and lastly the Proteasome-Glo™ Reagent (50 μL). […] Reagents were added to the plate well on ice, and the plate was then transferred to the plate luminometer (SpectraMax®, Molecular Devices, LLC, San Jose, CA, USA) set at 37 °C, gently mixed for 30 s, and the measurements were immediately started in kinetic mode, with data collected every 5 min for at least 60 min.
All compounds were dissolved in DMSO at a concentration of 10 mM and stored at −20 °C or 4 °C. Solutions of the test compounds were prepared at their adequate dilutions in 10 mM HEPES buffer pH 7.6 before each experiment.
To calculate the proteasome activity over time, the value of mean relative luminescence units (RLU) of blank wells at each respective time point was subtracted, and then the ratio between mean RLU of the sample and mean RLU of the positive control wells was calculated for each time point and expressed as percentage.

[2] = target: T2, 20S proteasome in HT-29 cell lysates, C-L activity (Homo sapiens, UniProt P28072); experiment: Proteasome inhibition assay in cell lysates, HT-29, C-L; settings: for inhibition at 10 µM: read-out: percentage of proteasome inhibition, C-L, cell lysates HT-29, at 10 µM; for inhibition at 100 µM: read-out: percentage of proteasome inhibition, C-L, cell lysates HT-29, at 100 µM
T2 sequence (P28072 35-239 limits assumed): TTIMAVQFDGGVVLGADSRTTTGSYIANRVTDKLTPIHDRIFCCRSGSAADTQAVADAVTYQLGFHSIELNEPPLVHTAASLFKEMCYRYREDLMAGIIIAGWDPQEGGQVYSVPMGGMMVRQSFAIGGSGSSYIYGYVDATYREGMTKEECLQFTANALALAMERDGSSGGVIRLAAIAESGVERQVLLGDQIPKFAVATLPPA
T2 sequence (Q99436 44-277 partner): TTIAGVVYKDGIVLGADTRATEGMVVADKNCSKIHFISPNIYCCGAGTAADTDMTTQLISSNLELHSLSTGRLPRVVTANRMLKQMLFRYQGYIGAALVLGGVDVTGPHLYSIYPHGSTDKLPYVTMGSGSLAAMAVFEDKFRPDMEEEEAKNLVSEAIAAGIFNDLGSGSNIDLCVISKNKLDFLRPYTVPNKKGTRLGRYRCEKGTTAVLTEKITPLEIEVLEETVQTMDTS
Description: (§1) Cells were obtained from several cultured cell lines: Jurkat, K562, HT-29, and HCT116. Pellets with 20 × 10^6 cells were prepared and washed with cold sterile phosphate buffered saline (PBS), 1×, pH 7.4 (Gibco, Thermo Fisher Scientific, Paisley, UK). […] Cells were resuspended in buffer containing 50 mM TRIS-HCl pH 7.4 (Nzytech, Lisboa, Portugal), 5 mM MgCl2 (≥98% purity, Merck, Hamburg, Germany), 1 mM DTT (Merck, Hamburg, Germany), 2 mM ATP (≥98% purity, Enzo Life Sciences Inc., Farmingdale, NY, USA), and 250 mM saccharose (Merck, Hamburg, Germany). Glass beads (Merck, Hamburg, Germany) equivalent to the volume of the cell suspension were added, and the mixture was vortexed for 2 min at 4 °C. Beads and cell debris were removed using 5 min centrifugation at 1000× g and 4 °C, followed by 20 min of centrifugation at 10,000× g at 4 °C. Cell lysates containing proteasomes were resuspended in “activity buffer” [50 mM TRIS-HCl (pH 7.4), 5 mM MgCl2, 1 mM DTT, 2 mM ATP (≥98% purity, Enzo Life Sciences Inc., Farmingdale, NY, USA), and 500 µM EDTA (≥98% purity, Merck, Hamburg, Germany)]. Protein concentration was determined using the Pierce™ BCA protocol (Thermo Fisher Scientific, Rockford, IL, USA). […] DMSO was added in an equal volume as used for the untreated compounds as a way to assess/control its influence in the assay. Untreated cells were used as control. In each well of a 96-well plate, 25 µL of lysate were seeded in duplicate with 25 µL of the compound to test; in the control, 25 µL of activity buffer were added to the 25 µL of lysate. A blank (50 µL of activity buffer) was added to the wells in quadruplicate. Cell lysates, pre-treated or not with different concentrations of the test compounds, were incubated for 30 min at 37 °C. […] Stock solutions (10 mM) of each substrate were prepared in DMSO, diluted in activity buffer, and 50 µL were added to all wells (final concentration of each substrate = 100 µM), followed by an incubation at 37 °C for 60 min. Samples fluorescence was measured at an excitation wavelength of 360 nm and emission of 465 nm; the fluorescence measures were performed using the GloMax-Multi + Detection System (Promega Corp., Madison, WI, USA). Activity was evaluated in fluorescence units, after being converted to percentage of proteasome inhibition and, whenever possible, expressed as IC50 by plotting the inhibition data of each compound at different concentrations against the log of the concentration of the inhibitor, using the GraphPad Prism software version 7. At least eight different concentrations of the test compounds were used.

[3] = target: T3, 20S proteasome in HCT116 cell lysates, CT-L activity (Homo sapiens, UniProt P28074); experiment: Proteasome inhibition assay in cell lysates, HCT116, CT-L; settings: for percentage of proteasome inhibition, CT-L, cell lysates HCT116: at 100 µM; for percentage of proteasome inhibition, CT-L, cell lysates HCT116 / inhibition at 100 µM: Table 2 legend: bortezomib 10 µM; for inhibition at 100 µM: read-out: percentage of proteasome inhibition, CT-L, cell lysates HCT116, at 100 µM; for inhibition at 10 µM: read-out: percentage of proteasome inhibition, CT-L, cell lysates HCT-116, at 10 µM
T3 sequence (P28074 60-263): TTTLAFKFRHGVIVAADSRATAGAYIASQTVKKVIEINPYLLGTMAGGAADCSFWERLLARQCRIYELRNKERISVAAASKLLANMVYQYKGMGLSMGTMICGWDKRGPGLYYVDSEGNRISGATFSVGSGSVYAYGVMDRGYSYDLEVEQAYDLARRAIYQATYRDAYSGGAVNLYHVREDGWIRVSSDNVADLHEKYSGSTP
T3 sequence (P20618 29-241 partner): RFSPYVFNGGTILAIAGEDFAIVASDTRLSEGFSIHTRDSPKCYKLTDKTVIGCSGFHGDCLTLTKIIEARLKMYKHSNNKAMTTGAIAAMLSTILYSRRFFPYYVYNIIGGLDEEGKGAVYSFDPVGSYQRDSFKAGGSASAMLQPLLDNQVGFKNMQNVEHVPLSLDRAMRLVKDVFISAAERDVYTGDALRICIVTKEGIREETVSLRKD
Description: as §1

[4] = at 100 µM, Table 2 legend: bortezomib 10 µM
[5] = Table 2 legend: bortezomib 10 µM

Row | Compound | inhibition at 10 µM [1] | percentage of proteasome inhibition, T-L, isolated human 20S proteasome [1] | percentage of proteasome inhibition, C-L, cell lysates HT-29 ([2]; at 10 µM) | percentage of proteasome inhibition, C-L, cell lysates HT-29 [2, 4] | percentage of proteasome inhibition, CT-L, cell lysates HCT-116 ([3]; at 10 µM) | percentage of proteasome inhibition, CT-L, cell lysates HCT116 [3] | IC50 [2] | inhibition at 10 µM [2] | inhibition at 100 µM [2, 5] | IC50 [3] | inhibition at 100 µM [3] | inhibition at 10 µM [3] | IC50 [1]
1 | Cc1ccc2ccccc2c1CSc1ncnc2c1ncn2C1OC(CO)C(O)C1O (centres unmarked) [Compound 1] | 4.43% | 51.65% and 52% |  | 76% |  | 90% | 79.4 µM | 0% | 76% | 76.4 µM | 90.2% | 0% | 
2 | Cc1ccc(/C(=N/NS(=O)(=O)c2ccc([N+](=O)[O-])cc2)Sc2cc(Cl)c(C)cc2S(N)(=O)=O)cc1 [Compound 3] | 8.8% | 95.30% and 95% |  | 19% |  | 33% |  | 0% | 18.6% |  | 33% | 0% | 27.5 µM
3 | C#CCCN1CCN(c2ccc(-n3c(=O)ccc4cnc5ccc(-c6ccc(N)nc6)cc5c43)cc2C(F)(F)F)CC1 [Compound 4, 9-(6-Aminopyridin-3-yl)-1-(4-(4-(but-3-yn-1-yl)piperazin-1-yl)-3-(trifluoromethyl)phenyl)benzo[h][1,6]naphthyridin-2(1H)-one] | 0% | 73.95% and 74% |  | 82% |  | 98% | 35.2 µM | 0% | 82.1% | 35.7 µM | 98% | 22.1% | 48.4 µM

Now from value to molecule:

Row | inhibition at 10 µM [1] | percentage of proteasome inhibition, T-L, isolated human 20S proteasome [1] | percentage of proteasome inhibition, C-L, cell lysates HT-29 ([2]; at 10 µM) | percentage of proteasome inhibition, C-L, cell lysates HT-29 [2, 4] | percentage of proteasome inhibition, CT-L, cell lysates HCT-116 ([3]; at 10 µM) | percentage of proteasome inhibition, CT-L, cell lysates HCT116 [3] | IC50 [2] | inhibition at 10 µM [2] | inhibition at 100 µM [2, 5] | IC50 [3] | inhibition at 100 µM [3] | inhibition at 10 µM [3] | IC50 [1] | Compound
4 | 3.2% | 33.58% and 34% | 92.93% | 99.05% and 99% | 97.94% | 99.14% and 99% |  |  |  |  |  |  |  | CC(C)C[C@H](NC(=O)[C@H](Cc1ccccc1)NC(=O)c1cnccn1)B(O)O [Bortezomib, bortezomib, reference compound]
5 | 0% | 97.00% |  | 69% |  | 74% | 62.1 µM | 6.78% | 69.2% | 50.9 µM | 74.2% | 6.93% | 25.8 µM | O=C1c2ccccc2C(=O)c2c(Nc3ccc(S(=O)(=O)N(CCO)CCO)cc3)ccc(O)c21 [Compound 2]
6 | 5.37% | 5.35% and 5% |  | 29% |  | 67% |  | 0% | 29.3% | 95.9 µM | 66.9% | 0% |  | CC(C)c1nc(CN(C)C(=O)N[C@@H](CCN2CCOCC2)C(=O)N[C@H](CC[C@H](Cc2ccccc2)NC(=O)OCc2cncs2)Cc2ccccc2)cs1 [Compound 5, cobicistat, reference compound]
